The term IC50 denotes the midpoint of a concentration-inhibition curve.

For test [1], the system named is Neonatal foreskin fibroblasts (NFF). In words: Proliferation assay (MTT), normal cell toxicity. The note with it: Table 1; Neonatal Foreskin Fibroblasts (Human, NFF); read-out: IC50. It is filed as cell-based, Human. As for the experimental part:
The normal cell line NFF (neonatal foreskin fibroblasts) was a sift from Dr. Peter Parsons (Queensland Institute of Medical Research). RK (rabbit kidney) cells were obtained from Miller Whalley (Macquarie University). Both cell lines were cultured in RPMI supplemented with 10% FCS(CSL, Australia), penicillin (100 U/ml), streptomycin ([…]), L-glutamine (2 mM) and sodium bicarbonate (1.2 g/L), and cultured at 37° C. in a humidified atmosphere of 5% CO2.
(§1) IC50 values were determined for each cell line. Cells were seeded in 96-well plates at an appropriate cell density as determined from growth kinetics analysis and cultured for 5 days in the absence and presence of the test compounds. Cell proliferation was assessed after the addition of 20 μl of 3-4,5 dimethylthiazol-2,5-diphenyl tetrazolium bromide (MTT, 2.5 mg/ml in PBS, Sigma) for 3-4 hrs at 37° C. according to manufacturer's instructions. IC50 values were calculated from semi-log plots of % of control proliferation on the y-axis against log dose on the x-axis.

The test system of test [2] is CP70 ovarian cancer cell line. The test is described as follows: Proliferation assay (MTT). It is filed as cell-based. The note with it: Table 2.1; Ovarian CP70; read-out: IC50.
The subject of test [3] is SKOV-3 ovarian cancer cell line. In words: Proliferation assay (MTT). Format: cell-based. Conditions: Table 2.1; Ovarian SKOV-3; read-out: IC50.
The next test deals with A2780 (Ovarian). The test is described as follows: Proliferation assay (MTT). It is filed as cell-based. Conditions: Table 2.1. As for the experimental part: (§2) All cultures were supplemented with 10% FCS (fetal calf serum CSL, Australia), penicillin (100 U/ml), streptomycin ([…]), L-glutamine (2 mM) and sodium bicarbonate (1.2 g/L), and cultured at 37° C. in a humidified atmosphere of 5% CO2. All cell lines were purchased from ATCC (Maryland, USA) except where noted.
as §1

In another test the test system is DU145 (Prostate). In words: Proliferation assay (MTT). It is filed as cell-based. Conditions: Table 2.1. As for the experimental part:
as §2, §1

In another test the test system is HCT-15 (Colorectal). The test is described as follows: Proliferation assay (MTT). Format: cell-based. Conditions: Table 2.1; Colorectal HCT-15. The procedure:
as §2, §1

In a further test the test system is HT-29 (Colorectal). The test is described as follows: Proliferation assay (MTT). Format: cell-based. The note with it: Table 2.1; Colorectal HT-29. The procedure:
as §2, §1

The next test deals with HTB-138 (Glioma). The test is described as follows: Proliferation assay (MTT). It is filed as cell-based. The note with it: Table 2.1; Glioma HTB-138. As for the experimental part: as §2, §1
A further test concerns LNCaP (Prostate). In words: Proliferation assay (MTT). It is filed as cell-based. Conditions: Table 2.1. As for the experimental part:
as §2, §1

Test [4] concerns MCF-7 breast cancer cell line. The test is described as follows: Proliferation assay (MTT). It is filed as cell-based. Conditions: Table 2.1; Breast MCF-7. The procedure: as §2, §1
For another test, the system named is NCI-H460 (Lung). The test is described as follows: Proliferation assay (MTT). Format: cell-based. Conditions: Table 2.1; Lung NCI-H460. The procedure: as §2, §1
The subject of test [5] is PC3 prostate cancer cell line. In words: Proliferation assay (MTT). Format: cell-based. The note with it: Table 2.1. The procedure:
as §2, §1

Test [6] deals with MDA-MB-468 breast cancer cell line. In words: Proliferation assay (MTT). Format: cell-based. The note with it: Table 2.1; Breast MDA-MB-468; read-out: IC50.
Test [7] relates to HPAC (CRL-2119) pancreatic cancer cell line. The test is described as follows: Proliferation assay (MTT). It is filed as cell-based, human. The note with it: Table 2.1; Pancreatic CRL-2119; read-out: IC50.
The subject of test [8] is MM200 melanoma cell line. The test is described as follows: Proliferation assay (MTT). It is filed as cell-based. Conditions: Table 2.1; Melanoma MM200; read-out: IC50.
A further test relates to A2058 melanoma cell line. In words: Proliferation assay (MTT). It is filed as cell-based. Conditions: Table 2.1; Melanoma A2058.
Test [9] relates to MM200 melanoma cell line. In words: HMC combination with cisplatin (synergy). The note with it: Table 8, single agent. Format: cell-based. As for the experimental part: as §1
3-D model analysis of the cytotoxic interaction between drug A and drug B enables the representation of predicted inhibitory effect of two drugs in combination in 3 dimensions to reveal actual regions of synergy or antagonism. The 3D synergy plots are based on a theory of “Theretical Additivity” (TA) as outlined by Kanzawa et al (Int. J. Cancer 71, 311-319 (1997)). Theoretical Additivity was calculated from the cytotoxicities of drug A and drug B as monotherapies using the following formula which assumes the drugs are mutually exclusive inhibitors: […]
The TA is calculated for each combination of drug concentrations and subtracted from the observed experimental effect for each combination to give a measurement of synergisitic action.
HMC synergy with cisplatin was assessed either in combination over 5 days exposure or in sequence (HMC→cisplatin) against the MM200 melanoma cell line. It was difficult to assess for synergisitic toxicity using a change in IC50 as a measure of synergy due to HMC toxicity as monotherapy (Table 8). […] Evidence of synergy using the HMC-cisplatin combination was further assessed using the HMC→cisplatin sequence (24 hr exposure to each compound in sequence) against the melanoma cell line MM200. Using change in IC50 to assess for synergy it was noted that HMC at concentrations of 2 μM markedly chemosensitised the MM200 cells to cisplatin by >1000 fold (Table 8). HMC induced chemosensitisation of MM200 cells to cisplatin was confirmed using 3D analysis of the data (FIG. 11B).

Each structure is given as a SMILES string. A value given as a limit tells only on which side of the number the result lay.

For `N.N.[Cl][Pt][Cl]` [Cisplatin, cisplatin, reference compound], the IC50 in test [1] came to 9.85 ± 5 µM; in test [2], 10.3 µM; in [3], 5.4 µM; in the test with A2780 (Ovarian), 2.1 µM; with DU145 (Prostate) it was 2.07 µM; in the test on HCT-15 (Colorectal), 130 ± 39 µM. Besides, the IC50 in the test on HT-29 (Colorectal) was 22.7 ± 35 µM; in the test with HTB-138 (Glioma) it was 42.3 µM; in the test with LNCaP (Prostate) it was greater than 10 µM; in test [4] it was 3.69 µM; with NCI-H460 (Lung), 22.3 µM; in [5] it was 2.11 µM. Also, the IC50 in test [6] came out at 0.58 µM; in test [7] it was 9.36 µM; in the test with MM200 melanoma cell line [8] it was 8.3 ± 0.7 µM; in the test on A2058 melanoma cell line it was 5.73 ± 2.3 µM; in the test with MM200 melanoma cell line [9] (24 hr exposure, read-out: IC50, 24 hr (monotherapy)), 6.32 µM; in the test on MM200 melanoma cell line [9] (5 days exposure, read-out: IC50, Combined (monotherapy)), 8.82 µM.
